Experimental data reported in PubChem BioAssay (NCI).
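48-hour exposure; five concentrations; linearly interpolated endpoints. Here, GI50 denotes the concentration required for 50% inhibition of growth. TGI marks complete inhibition of growth.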

Tests used:
Experiment in all cases: NCI-60 cell line screen, 48 h; in the data active means GI50 below about 0.43 µM; inactive means the rest
[1] = tested on: SNB-75 CNS
[2] = tested on: OVCAR-8 ovarian
[3] = tested on: NCI-H23 lung
[4] = tested on: SK-OV-3 ovarian
[5] = tested on: CAKI-1 renal
[6] = tested on: MDA-MB-231 breast
[7] = tested on: UACC-62 melanoma
[8] = tested on: OVCAR-4 ovarian
[9] = tested on: RXF 393 renal
[10] = tested on: LOX IMVI melanoma
[11] = tested on: ACHN renal
[12] = tested on: HOP-92 NSCLC
[13] = tested on: U251 CNS
[14] = tested on: EKVX NSCLC
[15] = tested on: HL-60(TB) leukemia

O=C(Cn1c2ccc(Br)cc2c2nc3ccccc3nc21)N1CCOCC1
83.3 µM: TGI [12]
> 100 µM: TGI [1] | TGI [2] | TGI [3] | TGI [4] | TGI [5] | TGI [6] | TGI [7] | TGI [8] | TGI [10] | TGI [11] | TGI [13]
98.9 µM: TGI [9]

CCOC(=O)c1cc(C2CCN(Cc3ccccc3)C2=O)c(C(=O)/C=C(/C)N)[nH]1 (stereo unspecified)
97.5 µM: TGI [12]
> 100 µM: TGI [1] | TGI [2] | TGI [3] | TGI [4] | TGI [5] | TGI [6] | TGI [7] | TGI [14] | TGI [8] | TGI [9] | TGI [11] | TGI [13]

Cc1cc(N(CCC#N)CCC#N)ccc1/C=C(\N=[N+]=[N-])C(=O)NC(=O)COc1ccccc1
> 67.2 µM: TGI [1]
> 100 µM: TGI [2] | TGI [3] | TGI [4] | TGI [5] | TGI [7] | TGI [14] | TGI [8] | TGI [10] | TGI [11] | TGI [15] | TGI [12] | TGI [13]
97.5 µM: TGI [9]

C/C(CC(=O)Nc1cccc([N+](=O)[O-])c1)=N/NC(N)=S
> 100 µM: TGI [1] | TGI [2] | TGI [3] | TGI [4] | TGI [7] | TGI [14] | TGI [9] | TGI [10] | TGI [11] | TGI [15] | TGI [12] | TGI [13]

C=C1C(=O)O[C@H]2C1C[C@H](O)/C(C)=C/CC[C@@]1(C)O[C@H]21 (stereo partly specified)
37.5 µM: TGI [3]
> 100 µM: TGI [1] | TGI [4] | TGI [13]
28.4 µM: TGI [5]
38.4 µM: TGI [6]
22 µM: TGI [11]
30.2 µM: TGI [8]
22.9 µM: TGI [7]
37.6 µM: TGI [2]
40.3 µM: TGI [14]
23.5 µM: TGI [10]
31.9 µM: TGI [9]
33 µM: TGI [12]

CC1=C(C(=O)NNC(=O)c2ccccc2O)CC(C(=O)NNC(=O)c2ccccc2O)=C(C)N1
> 100 µM: TGI [1] | TGI [3] | TGI [4] | TGI [5] | TGI [7] | TGI [8] | TGI [9] | TGI [10] | TGI [12] | TGI [13]
> 88.7 µM: TGI [11]
> 65.3 µM: TGI [2]
> 27.9 µM: TGI [6]
> 72.7 µM: TGI [14]

CN(C)C1(N(C)C)Oc2c(c(=O)n(C)c(=O)n2C)C(c2ccc(F)cc2)C1(F)F (stereo unspecified)
> 100 µM: TGI [1] | TGI [3] | TGI [4] | TGI [5] | TGI [6] | TGI [7] | TGI [14] | TGI [8] | TGI [9] | TGI [10] | TGI [11] | TGI [12] | TGI [13]

N#C/C(=C\c1ccccc1F)C(=O)c1ccccc1
> 100 µM: TGI [2] | TGI [3] | TGI [4] | TGI [5] | TGI [7] | TGI [14] | TGI [8] | TGI [10] | TGI [11] | TGI [15] | TGI [12] | TGI [13]

CCOC(=O)C1=C(C)C2C3C(=O)OC(=O)C3C1(C)C1C(=O)OC(=O)C21 (stereo unspecified)
> 100 µM: TGI [1] | TGI [2] | TGI [3] | TGI [4] | TGI [7] | TGI [14] | TGI [8] | TGI [9] | TGI [10] | TGI [11] | TGI [15] | TGI [12] | TGI [13]

CCOC(OCC)[C@@H]1C[C@@H]2N(O[C@H](OC3CCCC3(c3ccccc3)c3ccccc3)[C@H](OC(C)=O)[C@@]2(CC)Cc2ccc(OC)c(OC)c2)O1 (stereo partly specified)
> 100 µM: TGI [1] | TGI [3] | TGI [4] | TGI [5] | TGI [6] | TGI [7] | TGI [14] | TGI [8] | TGI [9] | TGI [10] | TGI [11] | TGI [13]

CC(C)(Cl)C(Cl)CC/C(CBr)=C(\Cl)CBr (stereo unspecified)
4.42 µM: TGI [6]
3.63 µM: TGI [12]
30.1 µM: TGI [14]
0.72 µM: TGI [10]
13.9 µM: TGI [11]
2.9 µM: TGI [8]
3.92 µM: TGI [2]
3.77 µM: TGI [3]
3.33 µM: TGI [7]
3.57 µM: TGI [13]
13.5 µM: TGI [4]
4.85 µM: TGI [1]
3.78 µM: TGI [9]
7.08 µM: TGI [5]

O=C(O)C1Cc2[nH]c3ccccc3c2C2CCCC12 (stereo unspecified)
> 100 µM: TGI [1] | TGI [2] | TGI [3] | TGI [4] | TGI [5] | TGI [7] | TGI [14] | TGI [8] | TGI [10] | TGI [11] | TGI [12] | TGI [13]

CC(C)(C)C1CCC2c3c([nH]c4ccccc34)C3C(=O)N(c4cc(Cl)ccc4Cl)C(=O)C3C2C1 (stereo unspecified)
> 100 µM: TGI [2] | TGI [3] | TGI [4] | TGI [5] | TGI [6] | TGI [7] | TGI [14] | TGI [9] | TGI [10] | TGI [11] | TGI [12]

Cc1nc2c(n1Cc1ccc(F)cc1)C(=O)c1ccccc1C2=O
29.7 µM: TGI [15]
32.3 µM: TGI [7]
> 100 µM: TGI [1] | TGI [2] | TGI [3] | TGI [4] | TGI [14] | TGI [8] | TGI [10] | TGI [11] | TGI [13]
87.3 µM: TGI [9]

O=S1(=O)OCCOS(=O)(=O)C1(Br)Br
> 100 µM: TGI [1] | TGI [2] | TGI [3] | TGI [4] | TGI [5] | TGI [7] | TGI [14] | TGI [8] | TGI [15] | TGI [12]

COc1cc(Cn2c3ccccc3c3cc(C)cc(OC)c32)cc2c1[nH]c1ccccc12
inactive: GI50 [7] 15 µM | GI50 [10] 8.19 µM | GI50 [11] 12.2 µM | GI50 [15] 12.3 µM | GI50 [12] 5.39 µM
> 25 µM: TGI [2] | TGI [4] | TGI [7] | TGI [10] | TGI [11] | TGI [15] | TGI [12] | TGI [13]

COc1cc2cnc3c4cc(O)ccc4ccc3c2cc1OC
> 100 µM: TGI [1] | TGI [2] | TGI [3] | TGI [4] | TGI [5] | TGI [7] | TGI [14] | TGI [8] | TGI [9] | TGI [10] | TGI [11] | TGI [15] | TGI [12] | TGI [13]
